Experimental data as given in patent publication US11479551B2, “MTA-cooperative PRMT5 inhibitors” (Mirati Therapeutics, Inc., priority 2019, dated 2022).
Like-named read-outs stand apart in the source and are kept apart here.

How the values were obtained:
[1] = test system: HCT116 homozygous MTAP knockout cells; assay: Proliferation assay (CellTiter-Glo, 10 days of treatment), HCT116 MTAP knockout; assay type: cell-based; conditions: read-out: Proliferation HCT116MTAP_KO IC50
Outline: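 Viability of the CRISPR/Cas9 homozygous MTAP-knockout HCT116 line was read by CellTiter-Glo after 10 days of PRMT5 inhibitor exposure, with IC50 derived from the dose response. Compound was given the day after seeding and renewed at an identical concentration when cells were split 1:10 on day 6.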

[2] = test system: PRMT5-dependent Symmetric Di-methyl Arginine signal in HCT116 homozygous MTAP knockout cells; assay: SYM11 In-Cell Western, HCT116 MTAP knockout; assay type: cell-based; conditions: HCT116 homozygous MTAP knockout cells, 4 days of treatment, SYM11/DRAQ5 ratio, read-out: In-cell-Western (SYM11) HCT116 MTAP_KO IC50
PRMT5/MEP50 complex [3] = molecular target: T1, PRMT5/MEP50 complex (Homo sapiens (Human), UniProt O14744); assay: PRMT5:MEP50 HotSpot Assay (full-length histone H2A substrate, plus and minus MTA); assay type: biochemical; conditions: IC50 + 2 μM MTA, in the presence of 2 μM MTA
Outline: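 Tritium incorporated into recombinant full-length histone H2A was counted by scintillation after stopped reactions were captured on filter paper.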

PRMT5/MEP50 complex [4] = molecular target: T1, PRMT5/MEP50 complex; assay: PRMT5:MEP50 FlashPlate Assay (histone H4 peptide substrate, plus and minus MTA); assay type: biochemical
Procedure: The PRMT5 inhibitory activity of compounds of the present invention was determined using either a PRMT5:MEP50 FlashPlate Assay (Reaction Biology Corporation) or a PRMT5:MEP50 HotSpot Assay (Reaction Biology Corporation).
1. PRMT5:MEP50 FlashPlate Assay

[5] = test system: PRMT5-dependent Symmetric Di-methyl Arginine signal in HCT116 parental cells; assay: SYM11 In-Cell Western, HCT116 parental; assay type: cell-based; conditions: Homo sapiens, HCT-116, 96 h, 4 days of treatment, SYM11/DRAQ5 ratio
Procedure: Control samples were analyzed in parallel.
Briefly, on Day 0, 2,000 HCT116 parental or HCT116 homozygous MTAP knockout cells were seeded in 96 well plates in McCoy's 5A supplemented with 10% fetal bovine serum and pen/strep and the cells were incubated overnight at 37° C. plus 5% CO2. The following day, cells were treated with DMSO vehicle control or a dose response of PRMT5 inhibitors, and incubated at 37° C. plus 5% CO^2 for four days.
After 4 days of treatment, the cells were fixed by adding 50 μl of 4% paraformaldehyde solution to each well and the cells were incubated for 20 min at room temperature. The paraformaldehyde solution was removed, 150 μl of ice-cold methanol was added and the plate was placed −20° C. for 10 minutes. The methanol was removed, 150 μl of Odyssey Blocking buffer+0.05% Tween20 was added and the plate was incubated at room temperature with shaking for one hour.
The primary SYM11 antibody solution was removed by aspiration and the wells were washed three consecutive times with phosphate buffered saline containing 0.1% Tween-20 (PBST).
The secondary antibody solution was removed by aspiration and the wells were washed three consecutive times with PB ST.
The SYM11 signal and the DRAQ5 signal were quantified using a Li-Cor Odyssey machine reading at […], respectively. The SYM11/DRAQ5 ratio was used to calculate the inhibition of Symmetric Dimethyl Arginine as percent of DMSO control.

[6] = IC50 + 2 μM MTA (nM), in the presence of 2 μM MTA
[7] = in the absence of MTA, read-out: IC50

T1 sequence (O14744 2-637): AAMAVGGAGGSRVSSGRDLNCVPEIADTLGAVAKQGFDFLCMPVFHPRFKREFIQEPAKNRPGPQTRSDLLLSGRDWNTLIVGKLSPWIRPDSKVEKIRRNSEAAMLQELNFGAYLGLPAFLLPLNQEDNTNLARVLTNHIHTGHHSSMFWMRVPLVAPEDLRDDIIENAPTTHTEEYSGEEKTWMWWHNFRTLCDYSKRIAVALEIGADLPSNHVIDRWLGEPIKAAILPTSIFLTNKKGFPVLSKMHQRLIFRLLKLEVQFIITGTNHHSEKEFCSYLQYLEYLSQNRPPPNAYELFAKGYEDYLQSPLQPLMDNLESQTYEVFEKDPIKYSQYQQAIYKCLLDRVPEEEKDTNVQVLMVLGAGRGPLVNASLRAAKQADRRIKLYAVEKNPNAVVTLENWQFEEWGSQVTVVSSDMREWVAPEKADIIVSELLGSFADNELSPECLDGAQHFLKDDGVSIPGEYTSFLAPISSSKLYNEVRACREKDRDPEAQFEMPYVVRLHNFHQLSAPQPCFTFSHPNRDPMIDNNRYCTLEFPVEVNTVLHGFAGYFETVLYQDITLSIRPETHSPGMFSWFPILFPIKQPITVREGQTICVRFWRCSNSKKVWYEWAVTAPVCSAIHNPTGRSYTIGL
T1 sequence (Q9BQA1 2-342 partner): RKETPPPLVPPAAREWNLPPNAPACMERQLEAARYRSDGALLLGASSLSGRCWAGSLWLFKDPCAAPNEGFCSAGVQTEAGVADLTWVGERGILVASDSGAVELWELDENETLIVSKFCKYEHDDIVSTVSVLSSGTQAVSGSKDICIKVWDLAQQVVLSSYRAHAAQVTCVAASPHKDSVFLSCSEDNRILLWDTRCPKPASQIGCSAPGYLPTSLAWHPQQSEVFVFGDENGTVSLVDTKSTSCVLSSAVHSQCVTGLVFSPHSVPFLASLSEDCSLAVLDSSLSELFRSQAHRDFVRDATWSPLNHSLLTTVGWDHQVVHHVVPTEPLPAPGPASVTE

SMILES | IC50 [1] | IC50 [2] | IC50 (PRMT5/MEP50 complex [3]) | IC50 (PRMT5/MEP50 complex [4]; [6]) | IC50 ([1]; Homo sapiens, HCT-116, 240 h) | IC50 ([2]; Homo sapiens, HCT-116, 96 h) | IC50 (PRMT5/MEP50 complex [4]; [7]) | IC50 [5]
CC(N)c1n[nH]c(=O)c2ccc(-c3cnn(C)c3-c3cccc(Cl)c3C#N)cc12 (single isomer, unassigned) [Example 9-2, 2-[4-[4-(1-aminoethyl)-1-oxo-2H-phthalazin-6-yl]-2-methyl-pyrazol-3-yl]-6-chloro-benzonitrile] | > 10000 nM | > 1000 nM | > 10000 nM | > 10000 nM |  |  |  | 
Cn1ncc(-c2ccc3c(=O)[nH]nc(CN)c3c2)c1-c1ccc(Cl)cc1C#N [Example 4-101, 2-(4-(4-(aminomethyl)-1-oxo-1,2-dihydrophthalazin-6-yl)-1-methyl-1H-pyrazol-5-yl)-5-chlorobenzonitrile] |  |  | 892 nM | 0.5 nM | 2310 nM | 376 nM | 17 nM | 6670 nM
Cn1ncc(-c2ccc3c(=O)[nH]nc(CN)c3c2)c1-c1cc(Cl)ccc1C#N [Example 4-103, 2-(4-(4-(aminomethyl)-1-oxo-1,2-dihydrophthalazin-6-yl)-1-methyl-1H-pyrazol-5-yl)-4-chlorobenzonitrile] |  |  |  | 0.5 nM | 4390 nM | 255 nM | 115 nM | 6670 nM
NCc1n[nH]c(=O)c2ccc(-c3cnc4[nH]cc(-c5ccccc5)c4c3)cc12 [Example 4-190, 4-(aminomethyl)-6-(3-phenyl-1H-pyrrolo[2,3-b]pyridin-5-yl)phthalazin-1(2H)-one] |  |  | 278 nM |  | 1980 nM | > 3330 nM |  | > 3330 nM
Cn1ncc(-c2ccc3c(=O)[nH]nc(CN)c3c2)c1-c1cc(C#N)c2ccccc2c1C#N [Example 4-207, 2-(4-(4-(aminomethyl)-1-oxo-1,2-dihydrophthalazin-6-yl)-1-methyl-1H-pyrazol-5-yl)naphthalene-1,4-dicarbonitrile] |  |  |  |  | 98 nM | 3 nM |  | > 10000 nM
Cn1ncc(-c2ccc3c(=O)[nH]nc(CN)c3c2)c1-c1cc(C2CCOC2)ccc1C#N (stereo not shown) [Example 12-8, 2-[4-[4-(aminomethyl)-1-oxo-2H-phthalazin-6-yl]-2-methyl-pyrazol-3-yl]-4-THF-3-yl-benzonitrile] |  |  | 3860 nM |  | 7800 nM | 2860 nM |  | 

More lines, main results first:

IC50 [1] | IC50 [2] | IC50 (PRMT5/MEP50 complex [3]) | IC50 (PRMT5/MEP50 complex [4]; [6]) | IC50 ([1]; Homo sapiens, HCT-116, 240 h) | IC50 ([2]; Homo sapiens, HCT-116, 96 h) | IC50 (PRMT5/MEP50 complex [4]; [7]) | SMILES | IC50 [5]
 |  | 794 nM | 0.5 nM | 5320 nM | 391 nM | 28 nM | COc1ccc(C#N)c(-c2c(-c3ccc4c(=O)[nH]nc(CN)c4c3)cnn2C)c1 [Example 4-104, 2-(4-(4-(aminomethyl)-1-oxo-1,2-dihydrophthalazin-6-yl)-1-methyl-1H-pyrazol-5-yl)-4-methoxybenzonitrile] | 3330 nM
 |  | 1000 nM | 1.8 nM | 1400 nM | 469 nM | 71 nM | Cc1ccc(C#N)c(-c2c(-c3ccc4c(=O)[nH]nc(CN)c4c3)cnn2C)c1 [Example 4-105, 2-(4-(4-(aminomethyl)-1-oxo-1,2-dihydrophthalazin-6-yl)-1-methyl-1H-pyrazol-5-yl)-4-methylbenzonitrile] | 10000 nM
 |  | 816 nM | 0.5 nM | 1600 nM | 261 nM | 56 nM | Cc1ccc(-c2c(-c3ccc4c(=O)[nH]nc(CN)c4c3)cnn2C)c(C#N)c1 [Example 4-106, 2-(4-(4-(aminomethyl)-1-oxo-1,2-dihydrophthalazin-6-yl)-1-methyl-1H-pyrazol-5-yl)-5-methylbenzonitrile] | 3330 nM
 |  | 760 nM | 0.5 nM | 1060 nM | 31 nM | 37 nM | COc1cccc(-c2c(-c3ccc4c(=O)[nH]nc(CN)c4c3)cnn2C)c1C#N [Example 4-107, 2-(4-(4-(aminomethyl)-1-oxo-1,2-dihydrophthalazin-6-yl)-1-methyl-1H-pyrazol-5-yl)-6-methoxybenzonitrile] | 10000 nM
 |  |  |  | 2170 nM | 377 nM |  | CCOc1ccc(-c2c(-c3ccc4c(=O)[nH]nc(CN)c4c3)cnn2C)cc1 [Example 4-254, 4-(aminomethyl)-6-[5-(4-ethoxyphenyl)-1-methyl-pyrazol-4-yl]-2H-phthalazin-1-one] | 3330 nM
